Consider 14 compounds from US12649735B2 (HAIHE BIOPHARMA CO., LTD., priority 2019, dated 2026).

One assay has as its system BRD4-BD2. To be noted: cited from earlier work.
The test system of a further assay is acute leukemia tumors. The conditions noted are these: mice, administered orally, 60 mg/kg per day; cited from earlier work.
The target of assay [1] is T1, bromodomain protein BRD4 BD1 (Homo sapiens, UniProt O60885).
T1 construct: The proteins BRD4 BD1/BD2 used in the experiment were purchased from Active Motif Company (Cat. No. 31380/31446); purchased Active Motif 31380
Kind of assay: HTRF in vitro assay, inhibitory activity against BRD4 BD1. The format is binding. The conditions noted are these: BRD4(1) 30 nM in final system. As to the method: In this example, the half inhibitory activity (IC50) of the compounds of the present invention against the bromodomain protein BRD4 BD1 was determined.
(§1) The inhibitory activity of the compound against BRD4 BD1 was determined by using Homogeneous Time-Resolved Fluorescence (HTRF).
(§2) The proteins BRD4 BD1/BD2 used in the experiment were purchased from Active Motif Company (Cat. No. 31380/31446); Streptavidin XL-665 (#610SAXLA) and EPIgeneous Binding Domain Kit A (#62BDAPEG) were purchased from Cisbio Bioassays Company, [Lys(5,8,12,16)Ac]H4(1-21)-biotin (#64989), and [Lys(5,8,12,16)Ac]H4(1-25) were products of AnaSpec company; OTX015 and ABBV-075 were purchased from SelleckChem. 384 Well ProxiPlate (#6008280) was purchased from PerkinElmer. The multifunctional microplate reader used for the experimental was a product of PerkinElmer, model: Envision 2104. The experimental water was Millipore-Q pure water.
(§3) 10 mM of stock solution of compound in DMSO was diluted to 1 mM with DMSO and stored, and then diluted 10 times with Binding Domain dilution buffer (purchased from Cisbio Bioassays) for use (the concentration of DMSO in the final system was […]), 1:5 gradient dilution, a total of 5 concentrations.
(§4) 4. Test Method: 1 Batch, 2 Duplicate Wells
(§5) • 1) 5 μL of test compound was transferred to 45 μL of Binding Domain dilution buffer. • 2) 2 μL of 10× compound (4 μL Binding Domain dilution buffer: positive control; 6 μL enzyme buffer (purchased from Cisbio Bioassays): negative control) was transferred to the reaction plate. • 3) 4 μL of 5×BRD4(1) or BRD4(2) (30 nM in final system) was added to the reaction plate. • 4) 4 μL of 5×[Lys(5,8,12,16)Ac]H4(1-21)-biotin was added to the reaction plate, and the plate was covered with a film, and incubated at 37° C. for 30 min. • 5) A detection mixture of SA-XL665 (2×) and anti-H3K9me0-Eu(K) (2×) was prepared in detection buffer (purchased from Cisbio Bioassays). • 6) 10 μL of detection mixture (2×) was added to each well, and incubated for 3 h at room temperature, and the mp value was read using a multi-plate reader Envision. The parameters were set as follows.
(In TR-FRET formats the signal depends on donor and acceptor labels being close together.)

The target in assay [2] is T2, bromodomain protein BRD4 BD2 (Homo sapiens, UniProt O60885).
T2 construct: The proteins BRD4 BD1/BD2 used in the experiment were purchased from Active Motif Company (Cat. No. 31380/31446); purchased Active Motif 31446
Kind of assay: HTRF in vitro assay, inhibitory activity against BRD4 BD2. Format: binding. The conditions noted are these: BRD4(2) 30 nM in final system. As to the method: as §1, §2, §3, §4, §5

pIC50: −log10 of the molar value.

A word on the pIC50: it is −log10 of the IC50, conventionally taken in molar units. Read a low pIC50 as a large IC50.

Regarding `CCNC(=O)c1cc2c(-c3cc(C(C)(C)O)ccc3Oc3c(C)cc(F)cc3C)cn(C)c(=O)c2[nH]1` [Abbv744], the “selectivity (BD2/BD1)” value in the assay with BRD4-BD2 is listed as over 100 times.

`Cc1noc2c1-c1ccccc1C(c1ccc(Cl)cc1)=N[C@H]2CC(N)=O` [CPI-0610]: the “inhibits acute leukemia tumors” value in the assay on acute leukemia tumors was 41%.

With `CC(c1ccccc1)c1cn(C)c(=O)c2c(NC(=O)OC(C)(C)C)c(-c3cnn(C)c3)oc12` (centres unmarked) [Compound A61, tert-butyl (5-methyl-2-(1-methyl-1H-pyrazol-4-yl)-4-oxo-7-(1-phenethyl)-4,5-dihydrofuro[3,2-c]pyridin-3-yl carbamate], the pIC50 was 6.00 to 7.00 in assay [1] and at least 8.00 in assay [2].

On to `CC(c1ccc(F)cc1)c1cn(C)c(=O)c2[nH]c(-c3cnn(C(CO)CN4CCN(C)CC4)c3)cc12` (centres unmarked) [Compound A62, 4-(1-(4-fluorophenyl)ethyl)-2-(1-(1-hydroxy-3-(4-methylpiperazin-1-yl)propan-2-yl)-1H-pyrazol-4-yl)-6-methyl-1,6-dihydro-7H-pyrrolo[2,3-c]pyridin-7-one], for which the pIC50 in assay [1] is 6.00 to 7.00; in assay [2] it was at least 8.00.

Consider `CC(c1ccc(N2CCN(C)CC2)cc1)c1cn(C)c(=O)c2[nH]c(-c3cnn(C4COC4)c3)cc12` (centres unmarked) [Compound A63, 6-methyl-4-(1-(4-(4-methylpiperazin-1-yl)phenyl)ethyl)-2-(1-(oxetan-3-yl)-1H-pyrazol-4-yl)-1,6-dihydro-7H-pyrrolo[2,3-c]pyridin-7-one], for which the pIC50 in assay [1] was 6.00 to 7.00; in assay [2] it was 7.00 to 8.00.

Take `CC(c1ccc(Cl)cc1)c1cn(C)c(=O)c2[nH]c(C(=O)Nc3cnn(C)c3)cc12` (centres unmarked) [Compound A64, 4-(1-(4-chlorophenyl)ethyl)-6-methyl-N-(1-methyl-1H-pyrazol-4-yl)-7-oxo-6,7-dihydro-1H-pyrrolo[2,3-c]pyridin-2-carboxamide]: the negative-log IC50 (pIC50) was 6.00 to 7.00 in assay [1] and 7.00 to 8.00 in assay [2].

Regarding `Cn1cc(C(CO)c2ccccc2)c2cc(-c3cnn(C4COC4)c3)[nH]c2c1=O` (centres unmarked) [Compound A67, 4-(2-hydroxy-1-phenethyl)-6-methyl-2-(1-(oxetan-3-yl)-1H-pyrazol-4-yl)-1,6-dihydro-7H-pyrrolo[2,3-c]pyridin-7-one], the pIC50 is 6.00 to 7.00 in assay [1] and 7.00 to 8.00 in assay [2].

In the case of `Cn1cc(Oc2ccccc2)c2cc(-c3cnn(C4COC4)c3)[nH]c2c1=O` [Compound A68, 6-methyl-2-(1-(oxetan-3-yl)-1H-pyrazol-4-yl)-4-phenoxy-1,6-dihydro-7H-pyrrolo[2,3-c]pyridin-7-one], the pIC50 in assay [1] was 6.00 to 7.00; in assay [2], 7.00 to 8.00.

In the case of `Cc1ccc(C(C)(C)c2cn(C)c(=O)c3[nH]c(-c4cnn(C5COC5)c4)cc23)cc1` [Compound A69, 6-methyl-2-(1-(oxetan-3-yl)-1H-pyrazol-4-yl)-4-(2-(p-tolyl)propan-2-yl)-1,6-dihydro-7H-pyrrolo[2,3-c]pyridin-7-one], the pIC50 was 6.00 to 7.00 in assay [1] and 7.00 to 8.00 in assay [2].

`Cn1cc(C(c2ccccc2)c2ccccc2)c2cc(-c3cnn(C4COC4)c3)[nH]c2c1=O` [Compound A71]: the negative-log IC50 (pIC50) in assay [1] is 6.00 to 7.00; in assay [2] it was 7.00 to 8.00.

Regarding `CC(c1ccc(O)cc1)c1cn(C)c(=O)c2[nH]c(-c3cnn(C4COC4)c3)cc12` (centres unmarked) [Compound A72, 4-(1-(4-hydroxyphenyl)ethyl)-6-methyl-2-(1-(oxetan-3-yl)-1H-pyrazol-4-yl)-1,6-dihydro-7H-pyrrolo[2,3-c]pyridin-7-one], the figures for the pIC50 in assay [1] and in assay [2] were 6.00 to 7.00 and 7.00 to 8.00, respectively.

In the case of `COc1ccc(C(C)c2cn(C)c(=O)c3[nH]c(-c4cnn(C5COC5)c4)cc23)cc1` (centres unmarked) [Compound A73, 4-(1-(4-methoxyphenyl)ethyl)-6-methyl-2-(1-(oxetan-3-yl)-1H-pyrazol-4-yl)-1,6-dihydro-7H-pyrrolo[2,3-c]pyridin-7-one], the figures for the pIC50 in assay [1] and in assay [2] were 6.00 to 7.00 and at least 8.00, respectively.

For the compound `CC(c1cccc(F)c1F)c1cn(C)c(=O)c2[nH]c(-c3cnn(C4COC4)c3)cc12` (centres unmarked) [Compound A74, 4-(1-(2,3-difluorophenyl)ethyl)-6-methyl-2-(1-(oxetan-3-yl)-1H-pyrazol-4-yl)-1,6-dihydro-7H-pyrrolo[2,3-c]pyridin-7-one], the pIC50 in assay [1] was 6.00 to 7.00; in assay [2], at least 8.00.

As for `CC(c1cccc(Cl)c1F)c1cn(C)c(=O)c2[nH]c(-c3cnn(C4COC4)c3)cc12` (centres unmarked) [Compound A75, 4-(1-(3-chloro-2-fluorophenyl)ethyl)-6-methyl-2-(1-(oxetan-3-yl)-1H-pyrazol-4-yl)-1,6-dihydro-7H-pyrrolo[2,3-c]pyridin-7-one], the pIC50 was 6.00 to 7.00 in assay [1] and at least 8.00 in assay [2].
